Experimental findings from patent US20230391808A1, “PHOSPHAPHENALENE-GOLD(I) COMPLEXES AS CHEMOTHERAPEUTIC AGENTS AGAINST GLIOBLASTOMA” (priority 2020, published 2023) are described below.

One data set concerns NCH82. Description: Crystal violet proliferation assay, NCH82. Type of data set: cell-based, human. The settings on record: glioblastoma cell line, 48 h exposure, mean of three biological replicates ± standard deviation.
Another data set concerns NCH89. As to the kind of experiment: Crystal violet proliferation assay, NCH89. Type of data set: cell-based, human. The settings on record: glioblastoma cell line, 48 h exposure, mean of three biological replicates ± standard deviation.
Another data set concerns NCH149. As to the kind of experiment: Crystal violet proliferation assay, NCH149. Type of data set: cell-based, human. Conditions: glioblastoma cell line, 48 h exposure, mean of three biological replicates ± standard deviation. As for the experimental part:
In order to investigate the role of the fused phosphaphenalene ring in the bio-activity of the drug, the ability of Compound 5 to inhibit cell proliferation in the glioblastoma cell lines NCH82, NCH89 and NCH149 was examined. For this purpose, cells were incubated with increasing concentrations of Compound 5 and cell proliferation was evaluated by crystal violet assay.
The effect of different compounds on cell growth was evaluated by the crystal violet method as described earlier (J. P. Rigalli et al., Cancer Lett. 2016, 376, 165-172). Briefly, cells were seeded in 96-well plates (10,000 cells/well). After 24 h cell culture medium was replaced by fresh compound-containing medium (ten different concentrations (0.01 to 200 μM μM)). After 48 h of exposure extent of cell proliferation inhibition was determined by crystal violet staining of surviving cells. Therefore, cells were washed and stained with 0.5% crystal violet solution (2.5 g in 100 ml methanol, diluted with 400 ml aqua bidest) for 15 min, rinsed and dried overnight.
(§1) Next, crystal violet was solubilized in methanol and absorbance was measured at 555 nm. The proliferative index was calculated as crystal violet absorption intensity as percentage relative to baseline (no cells) as described before (T. Peters et al., Naunyn Schmiedebergs Arch Pharmacol. 2006, 372, 291-299.) Cell survival plotted against the decimal logarithm of drug concentration in μM (c (of compound x) in μM) and fitted to a sigmoidal dose-response curve using Graph Pad Prism 7.02 (GraphPad Software, San Diego, USA).

Data set [1] relates to NCH517. Description: Crystal violet proliferation assay, brain metastasis NCH517. Type of data set: cell-based, human. The settings on record: brain metastasis cell line, 48 h, mean of three biological replicates ± standard deviation.
Text: (§2) Based on the remarkable results obtained with Compound 6, its anti-proliferative effects on a series of different cancer cell lines was investigated. To that end, in addition to the three glioblastoma cell lines described above, Compound 6 was employed on eleven other cancer cell lines including brain metastasis (NCH517, NCH604a and NCH466), meningioma (NCH93 and BenMen-1), IDH-mutant glioma (NCH511b, NCH1618 and NCH3763), and head and neck cancer cell lines (HNO210, HNO199 and HNO97) (Table 3).
(§3) The effect of different compounds on cell growth was evaluated by the crystal violet method as described earlier (J. P. Rigalli et al., Cancer Lett. 2016, 376, 165-172). Briefly, cells were seeded in 96-well plates (10,000 cells/well). […] After 48 h of exposure extent of cell proliferation inhibition was determined by crystal violet staining of surviving cells. […]
as §1

Data set [2] relates to NCH604a. As to the kind of experiment: Crystal violet proliferation assay, brain metastasis NCH604a. Type of data set: cell-based, human. Conditions: brain metastasis cell line, 48 h, mean of three biological replicates ± standard deviation.
Text: as §2, §3, §1

Data set [3] relates to NCH466. As to the kind of experiment: Crystal violet proliferation assay, brain metastasis NCH466. Type of data set: cell-based, human. The settings on record: brain metastasis cell line, 48 h, mean of three biological replicates ± standard deviation.
Text: as §2, §3, §1

Data set [4] has as its system NCH93. As to the kind of experiment: Crystal violet proliferation assay, meningioma NCH93. Type of data set: cell-based, human. The settings on record: meningioma cell line, 48 h, mean of three biological replicates ± standard deviation.
Text: as §2, §3, §1

The subject of a further data set is BenMen-1. Description: Crystal violet proliferation assay, meningioma BenMen-1. Type of data set: cell-based, human. Conditions: meningioma cell line, 48 h, mean of three biological replicates ± standard deviation.
Text: as §2, §3, §1

The next data set concerns NCH551b. Description: CellTiter-Glo proliferation assay, IDH-mutant glioma NCH551b. Type of data set: cell-based, human. Conditions: IDH-mutant glioma cell line, 48 h, mean of three biological replicates ± standard deviation.
Text: as §2
(§4) To assess the effect of Compound 4 and Compound 6 on cell growth of glioma stem-like cells (GSC) and GSC lines derived from IDH-mutant gliomas, cellular ATP levels were measured using the luminescent CellTiter-Glo Assay (Promega Corp, Madison, WI). GCS spheroid cultures were gently dissociated and cell suspensions were seeded in 96-well tissue culture plates (8,000 cells/well, 100 μl/well). After a 24-hour incubation period without any compound freshly reconstituted compound in ten final concentrations ranging from 0.01 μM to 200 μM were added and cells were incubated for 48 hours.
(§5) Before measurement, the plate was equilibrated at room temperature for 30 minutes. […] Next, the plate was incubated for 10 minutes at room temperature and finally, the luminescence was measured. […]
A general note: ATP-based viability assays read luminescence as a measure of living cells.

The next data set deals with NCH1618. Description: CellTiter-Glo proliferation assay, IDH-mutant glioma NCH1618. Type of data set: cell-based, human. Conditions: IDH-mutant glioma cell line, 48 h, mean of three biological replicates ± standard deviation.
Text: as §2, §4, §5

A further data set has as its system NCH3763. Description: CellTiter-Glo proliferation assay, IDH-mutant glioma NCH3763. Conditions: IDH-mutant glioma cell line, 48 h, mean of three biological replicates ± standard deviation. Type of data set: cell-based, human.
Text: as §2, §4, §5

A further data set concerns HNO210. As to the kind of experiment: Crystal violet proliferation assay, head and neck cancer HNO210. Type of data set: cell-based, human. The settings on record: head and neck cancer cell line, 48 h, mean of three biological replicates ± standard deviation.
Text: as §2, §3, §1

Another data set deals with HNO199. As to the kind of experiment: Crystal violet proliferation assay, head and neck cancer HNO199. Conditions: head and neck cancer cell line, 48 h, mean of three biological replicates ± standard deviation. Type of data set: cell-based, human.
Text: as §2, §3, §1

The next data set relates to HNO97. Description: Crystal violet proliferation assay, head and neck cancer HNO97. Type of data set: cell-based, human. The settings on record: head and neck cancer cell line, 48 h, mean of three biological replicates ± standard deviation.
Text: as §2, §3, §1

Data set [5] deals with NCH466. Description: Annexin V apoptosis assay (flow cytometry), NCH466. Type of data set: cell-based, human. The settings on record: drug concentration of 2 μM, 48 hours. As for the experimental part:
(§6) For this purpose, cells were incubated with different concentrations of Compound 6 for 48 hours and subsequently analyzed by flow cytometry (see representative example in FIG. 4A). Annexin V and propidium iodide (PI) were used as indicators for apoptosis/necrosis.
(§7) To quantitate the extent of apoptosis and necrosis, either annexin V staining combined with DAPI or double labeling of cells with annexin V and propidium iodide (PI) was used. The double labeling allows the distinction between apoptotic (annexin V^pos/DAPI^neg or annexin V^pos/PI^neg) and necrotic (annexin V^pos/DAPI^pos or annexin V^pos/PI^pos) cells. Cells were seeded in a 6-well plate (2.5×10^5/well) and left to attach overnight. […]
(§8) After treatment supernatant containing apoptotic and necrotic cells was collected, cells were harvested, washed, and up to 1×10^6 cells were incubated with FITC-conjugated annexin V antibody diluted in 1:1000 DAPI solution following manufactures instructions (#51-65874X, BD Bioscienes, Franklin Lakes, USA) or incubated with FITC-conjugated annexin V antibody and PI for 15 min following manufacturer instructions (#51-65974X, BD Biosciences, Franklin Lakes, USA). Cells were acquired by flow cytometry using a BD LSRII flow cytometer (BD Bioscienes, Franklin Lakes, USA) and analyzed by FlowJo Software v7.6.5 (TreeStar, Ahland, USA).
Background: A flow cytometer gives signals particle by particle.

Data set [6] has as its system NCH517. As to the kind of experiment: Annexin V apoptosis assay (flow cytometry), NCH517. Type of data set: cell-based, human. The settings on record: drug concentration of 2 μM, 48 hours. As for the experimental part:
as §6, §7, §8

Data set [7] has as its system NCH604a. As to the kind of experiment: Annexin V apoptosis assay (flow cytometry), NCH604a. Type of data set: cell-based, human. Conditions: drug concentration of 2 μM, 48 hours. As for the experimental part:
as §6, §7, §8

The test system of data set [8] is NCH93. As to the kind of experiment: Annexin V apoptosis assay (flow cytometry), NCH93. Type of data set: cell-based, human. The settings on record: drug concentration of 2 μM, 48 hours. As for the experimental part: as §6, §7, §8
For data set [9], the system named is head and neck cancer cell lines. As to the kind of experiment: Annexin V apoptosis assay (flow cytometry), head and neck cancer cell lines. Type of data set: cell-based, human. Conditions: drug concentration of 5 μM, 48 hours. As for the experimental part:
as §6, §7, §8

In data set [10] the test system is cancer cell lines derived from brain metastases, meningiomas, IDH-mutant gliomas and head and neck cancers. Description: Annexin V apoptosis assay (flow cytometry), all analyzed cell lines. Type of data set: cell-based, human. The settings on record: 48 hours (FIG. 4). The protocol:
as §6, §7, §8

The test system of another data set is NCH82 cell line. As to the kind of experiment: Drug uptake kinetics by fluorescence microscopy. Type of data set: cell-based, human. The protocol:
Based on the observed high bio-activity and the spectroscopic properties of Compound 6 as an example of the present invention, the drug uptake kinetics was investigated in NCH82 cell line. To this end, cells were treated with increasing concentrations of Compound 6 and its drug uptake was monitored with a fluorescence microscope (excitation/emission 350/455 nm; data not shown).
To measure the uptake kinetics of compound 6 by NCH82 cells, they were seeded in a 96-well plate (5,000 cells/well) and after 24 h, cell culture medium was replaced with compound 6 or DMSO-containing medium (0.1, 1 and 10 μM). Images were taken with a fluorescence microscope (Olympus, Shinjuku, Japan) at 1 h, 24 h and 48 h after treatment initiation. A laser with an excitation/emission spectrum of 350/455 nm was used and images were taken with a 10× objective.

A short description of data set [11]: Stability under controlled thermodynamic conditions upon repetitive cycles of illumination. Type of data set: physicochemical. Conditions: data not shown.
The subject of a further data set is cancer cell lines. Description: Anti-proliferative effects on a series of different cancer cell lines. Type of data set: cell-based, human. Conditions: summary over all cell lines of Table 3; read-out: mean IC50 values in some cell lines.
Text: as §2, §3
Next, crystal violet was solubilized in methanol and absorbance was measured at 555 nm. The proliferative index was calculated as crystal violet absorption intensity as percentage relative to baseline (no cells) as described before (T. Peters et al., Naunyn Schmiedebergs Arch Pharmacol. 2006, 372, 291-299.) Cell survival plotted against the decimal logarithm of drug concentration in μM (c (of compound x) in μM) and fitted to a sigmoidal dose-response curve using Graph Pad Prism 7.02 (GraphPad Software, San Diego, USA). […]

Structures are written as SMILES.

As for `CC(=O)OC[C@H]1O[C@@H]([S][Au-][P+]2(c3ccccc3)c3ccn(C)c3-c3cccc4cccc2c34)[C@H](OC(C)=O)[C@@H](OC(C)=O)[C@@H]1OC(C)=O` (stereo partly drawn) [Compound 6], the IC50 with NCH82 worked out at 0.73 µM; in the data set with NCH89 it was 4 µM; in the data set on NCH149, 0.87 µM; in the data set with NCH517 [1] it was 1.6 ± 0.3 µM; with NCH604a [2], 1.86 ± 0.14 µM; in the data set with NCH466 [3], 1.01 ± 0.02 µM. The IC50 in the data set with NCH93 [4] is 1.35 ± 0.09 µM; in the data set on BenMen-1, 1.32 ± 0.12 µM; in the data set with NCH551b it was 1.23 ± 0.25 µM; in the data set with NCH1618 it was 0.88 µM; in the data set with NCH3763 it was 5.21 ± 0.31 µM; in the data set on HNO210 it was 1.1 ± 0.08 µM. For the same compound, the half-maximal inhibitory concentration (IC50) was 2.65 ± 0.25 µM with HNO199, 5.51 ± 1.04 µM with HNO97 and roughly 1.5 µM in the data set with cancer cell lines. Further, in the data set on NCH466 [5], the “cells in apoptosis/necrosis, NCH466” value was “more than 50%”. Also, the “cells in apoptosis/necrosis, NCH517” value in the data set on NCH517 [6] is “more than 50%”. Also, the “cells in apoptosis/necrosis, NCH604a” value with NCH604a [7] is on record as “more than 50%”. The “cells in apoptosis/necrosis, NCH93” value in the data set on NCH93 [8] is listed as “more than 50%”. The “cells in apoptosis/necrosis, head and neck cancer cell lines” value in data set [9] was “more than 50%”. Besides, in [10], the “induction of apoptosis/necrosis in all analyzed cell lines” value is listed as “able to induce apoptosis/necrosis”. Moreover, in the data set with NCH82 cell line (0.1 μM), the “time after treatment initiation at which dead cells were first observed” value stood at 48 h. Moreover, in the data set on NCH82 cell line (1 μM), the “time after which cell death could be observed” value is 24 h. In addition, in [11], the “stability upon repetitive cycles of illumination” value is listed as “very high stability”.

Broadly, the IC50 is the concentration that gives 50% inhibition.
